From patent publication US9284283B2, “Macrocyclic compounds for modulating IL-17” (ENSEMBLE THERAPEUTICS CORPORATION, priority 2012, dated 2016)

Each compound was assayed against T1, biotinylated human IL-17 (binding to IL17R/Fc) (Homo sapiens, UniProt Q16552) (assay: IL-17 competition ELISA II (captured IL17R/Fc, biotinylated IL-17)). Conditions: not given.
T1 construct: purchased R&D Systems 317-ILB (IL-17, biotinylated); 177-IR (IL17R/Fc)
T1 sequence (Q16552 20-155 limits assumed): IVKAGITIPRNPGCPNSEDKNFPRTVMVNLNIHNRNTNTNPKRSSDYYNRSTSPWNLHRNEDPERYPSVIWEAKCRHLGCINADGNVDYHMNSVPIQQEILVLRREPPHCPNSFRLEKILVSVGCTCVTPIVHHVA
Method in brief: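 Anti-human IgG-coated plates captured IL17R/Fc (10 nM), then compound (5-fold dilutions from 1 μM) and biotinylated human IL-17 (20 nM stock) were added for 30 min at room temperature in PBST. Bound IL-17 detected by streptavidin-HRP/TMB at 450 nm. IC50 from 4-parameter logistic fit between no-competitor and blank controls.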
Work on NC(=O)CC[C@H]1NC(=O)[C@@H](Cc2ccc(NC(=O)[C@H](Cc3ccccc3Cl)NC(=O)Cc3ccc(F)cc3)cc2)NC(=O)CC2(CCCC2)CC(=O)NCCCCCNC1=O [Compound 479] yielded an IC50 of less than 100 nM.
Work on CN1CCOCCOCCNC(=O)[C@@H](Cc2ccc(NC(=O)[C@H](Cc3ccccc3Cl)NC(=O)Cc3ccc(N(C)C)cc3)cc2)NC(=O)CC2(CCCC2)CC1=O [Compound 582] yielded an IC50 of less than 100 nM.
Compound O=C1CC2(CCCC2)CC(=O)N[C@H](Cc2ccc(NC(=O)[C@H](Cc3ccccc3Cl)NC(=O)Cc3ccc(F)cc3)cc2)C(=O)NCCOCCOCCN1 [Compound 490] has an IC50 of less than 100 nM.
CN(C)CCOc1ccc(CC(=O)N[C@H](C(=O)Nc2ccc(C[C@H]3NC(=O)CC4(CCCC4)CC(=O)NCCCCCNC(=O)[C@@H](Cc4ccccc4)NC3=O)cc2)C2CCCCC2)cc1 [Compound 437] was tested, and the IC50 was 100 to 1000 nM.
In the case of O=C1CC2(CCCC2)CC(=O)N[C@H](Cc2ccc(NC(=O)[C@H](Cc3ccccc3Cl)NC(=O)Oc3ccccc3)cc2)C(=O)NCCOCCOCCN1 [Compound 571], the IC50 is reported as less than 100 nM.
With Cc1ccc(CC(=O)N[C@@H](Cc2ccccc2Cl)C(=O)Nc2ccc(C[C@H]3NC(=O)CC4(CCCC4)CC(=O)NCCOCCOCCNC3=O)cc2)cc1 [Compound 494] the IC50 was less than 100 nM.
With C[C@H]1NC(=O)[C@@H](Cc2ccc(NC(=O)[C@@H](NC(=O)Cc3ccc(N(C)C)cc3)C3CCCCC3)cc2)NC(=O)CC2(CCCC2)CC(=O)N(C)CCCCCN(C)C1=O [Compound 601] the IC50 was less than 100 nM.
C[C@H]1NC(=O)[C@@H](Cc2ccc(NC(=O)[C@H](Cc3ccccc3Cl)NC(=O)C(=O)c3ccccc3)cc2)NC(=O)CC2(CCCC2)CC(=O)NCCCCCNC1=O [Compound 549] showed an IC50 of less than 100 nM.
Work on C[C@H]1NC(=O)[C@@H](Cc2ccc(NC(=O)[C@@H](NC(=O)C(F)(F)c3ccccc3)C3CCCCC3)cc2)NC(=O)CC2(CCCC2)CC(=O)N(C)CCCCCN(C)C1=O [Compound 600] yielded an IC50 of less than 100 nM.
Work on O=C1CC2(CCCC2)CC(=O)N[C@H](Cc2ccc(NC(=O)[C@H](Cc3ccccc3Cl)NC(=O)Cc3ccc(CO)cc3)cc2)C(=O)N[C@H](Cc2cscn2)C(=O)NCCCC[C@@H](C(=O)O)N1 [Compound 658] yielded an IC50 of less than 100 nM.
O=C1CC2(CCCC2)CC(=O)N[C@H](Cc2ccc(NC(=O)[C@H](Cc3ccccc3Cl)NC(=O)c3ccccc3)cc2)C(=O)NCCOCCOCCN1 [Compound 522] was tested, and the IC50 was less than 100 nM.
For C[C@H]1NC(=O)[C@@H](Cc2ccc(NC(=O)[C@H](Cc3ccccc3Cl)NC(=O)C3(c4ccc(F)cc4)CC3)cc2)NC(=O)CC2(CCCC2)CC(=O)N[C@H](C(=O)O)CCCCNC1=O [Compound 513], the IC50 was less than 100 nM.
Compound CC1NC(=O)C(Cc2ccc(NC(=O)C(Cc3ccccc3Cl)NC(=O)C(F)(F)c3ccccc3)cc2)NC(=O)CC2(CCCC2)CC(=O)N(C)CCCCCN(C)C1=O (stereo not shown) [Compound 566] has an IC50 of less than 100 nM.
C[C@H]1NC(=O)[C@@H](Cc2ccc(NC(=O)[C@H](Cc3ccccc3Cl)NC(=O)Cc3ccc(F)cc3)cc2)NC(=O)CC2(CCCC2)NC(=O)CCNC(=O)CCNC1=O [Compound 593] gave an IC50 of less than 100 nM.
In the case of O=C1CNC(=O)[C@@H](Cc2ccc(NC(=O)[C@H](Cc3ccc(F)cc3Cl)NC(=O)Cc3ccccc3)cc2)NC(=O)CC2(CCCC2)CC(=O)NCCCCCN1 [Compound 386], the IC50 is reported as less than 100 nM.
C[C@H]1NC(=O)[C@@H](Cc2ccc(NC(=O)[C@H](Cc3ccccc3Cl)NC(=O)Cc3ccc(CO)cc3)cc2)NC(=O)CC2(CCCC2)CC(=O)NCCCCCNC1=O [Compound 487] showed an IC50 of less than 100 nM.
In the case of O=C1CC2(CCCC2)CC(=O)N[C@H](Cc2ccc(NC(=O)[C@H](Cc3ccccc3Cl)NC(=O)Cc3ccc(F)cc3)cc2)C(=O)NCC#CCCCCN1 [Compound 497], the IC50 is reported as less than 100 nM.

Each compound was assayed on IL-17A induced secretion of IL-6 in primary human RASF cells (assay: Inhibition of IL17A induced secretion of IL6 in human rheumatoid arthritis synovial fibroblast (RASF) cells). Conditions: not given.
Assay type: cell-based
Method: This assay was used to determine the extent of inhibition of IL-17A induced secretion of IL-6 in primary human rheumatoid synovial fibroblast (RASF) cells by compounds of the invention. IL-17A is known to stimulate IL-6 production in RASF cells.
Low passage (passage 2-8) Primary human RASF cells (Asterand) were maintained in maintenance medium. Cells were detached from flasks by tryptic digestion and the cell density of the suspension determined. To each well of a 96 well culture plate was added 100 μL of seeding medium containing 50,000 cells/mL and the plate incubated overnight in a humidified 37° C., 5% CO2 incubator. The medium was replaced with fresh assay medium and cells were incubated for additional 5 hours in a humidified 37° C., 5% CO2 incubator prior to stimulation with recombinant human IL-17A (“rhIL-17A”). Prior to addition to cells, rhIL-17A (30 ng/mL) in assay medium was incubated with either DMSO alone, compounds, or anti-IL17 receptor antibody (3 μg/mL) for 1 hour at 37° C. The final concentration of DMSO in all samples was 0.25%. The final concentration of compounds varied from 0.03 μM to 25 μM.
Immediately before stimulation, cells were washed once with fresh assay medium. Then, 100 μL of the test samples was added in triplicate wells and the plates incubated for 20 hours in a humidified 37° C., 5% CO2 incubator. The assay medium from each well was collected and the IL-6 concentration in cell culture supernatants was determined by ELISA either immediately or after storage at −20° C.
A water-soluble tetrazolium salt (WST1) viability assay was immediately performed on the cells after the conditioned medium was collected using a WST1 reagent purchased from Roche. The concentration of IL-6 obtained from ELISA was normalized by the WST1 data.
CC1NC(=O)C(Cc2ccc(NC(=O)C(Cc3ccccc3Cl)NC(=O)C(F)(F)c3ccccc3)cc2)NC(=O)CC2(CCCC2)CC(=O)N(C)CCCCCN(C)C1=O (stereo not shown) [Compound 566] showed an IC50 of 100 to 1000 nM.

Same assay, conditions: Homo sapiens, Fibroblast
Compound NC(=O)CC[C@H]1NC(=O)[C@@H](Cc2ccc(NC(=O)[C@H](Cc3ccccc3Cl)NC(=O)Cc3ccc(F)cc3)cc2)NC(=O)CC2(CCCC2)CC(=O)NCCCCCNC1=O [Compound 479] has an IC50 of less than 100 nM.
CN1CCOCCOCCNC(=O)[C@@H](Cc2ccc(NC(=O)[C@H](Cc3ccccc3Cl)NC(=O)Cc3ccc(N(C)C)cc3)cc2)NC(=O)CC2(CCCC2)CC1=O [Compound 582] gave an IC50 of 1000 to 10000 nM.
In the case of O=C1CC2(CCCC2)CC(=O)N[C@H](Cc2ccc(NC(=O)[C@H](Cc3ccccc3Cl)NC(=O)Cc3ccc(F)cc3)cc2)C(=O)NCCOCCOCCN1 [Compound 490], the IC50 is reported as 1000 to 10000 nM.
For CN(C)CCOc1ccc(CC(=O)N[C@H](C(=O)Nc2ccc(C[C@H]3NC(=O)CC4(CCCC4)CC(=O)NCCCCCNC(=O)[C@@H](Cc4ccccc4)NC3=O)cc2)C2CCCCC2)cc1 [Compound 437], the IC50 was 1000 to 10000 nM.
For O=C1CC2(CCCC2)CC(=O)N[C@H](Cc2ccc(NC(=O)[C@H](Cc3ccccc3Cl)NC(=O)Oc3ccccc3)cc2)C(=O)NCCOCCOCCN1 [Compound 571], the IC50 was 1000 to 10000 nM.
For Cc1ccc(CC(=O)N[C@@H](Cc2ccccc2Cl)C(=O)Nc2ccc(C[C@H]3NC(=O)CC4(CCCC4)CC(=O)NCCOCCOCCNC3=O)cc2)cc1 [Compound 494], the IC50 was 100 to 1000 nM.
For C[C@H]1NC(=O)[C@@H](Cc2ccc(NC(=O)[C@@H](NC(=O)Cc3ccc(N(C)C)cc3)C3CCCCC3)cc2)NC(=O)CC2(CCCC2)CC(=O)N(C)CCCCCN(C)C1=O [Compound 601], the IC50 was 1000 to 10000 nM.
For C[C@H]1NC(=O)[C@@H](Cc2ccc(NC(=O)[C@H](Cc3ccccc3Cl)NC(=O)C(=O)c3ccccc3)cc2)NC(=O)CC2(CCCC2)CC(=O)NCCCCCNC1=O [Compound 549], the IC50 was less than 100 nM.
C[C@H]1NC(=O)[C@@H](Cc2ccc(NC(=O)[C@@H](NC(=O)C(F)(F)c3ccccc3)C3CCCCC3)cc2)NC(=O)CC2(CCCC2)CC(=O)N(C)CCCCCN(C)C1=O [Compound 600] was tested, and the IC50 was 1000 to 10000 nM.
With O=C1CC2(CCCC2)CC(=O)N[C@H](Cc2ccc(NC(=O)[C@H](Cc3ccccc3Cl)NC(=O)Cc3ccc(CO)cc3)cc2)C(=O)N[C@H](Cc2cscn2)C(=O)NCCCC[C@@H](C(=O)O)N1 [Compound 658] the IC50 was less than 100 nM.
O=C1CC2(CCCC2)CC(=O)N[C@H](Cc2ccc(NC(=O)[C@H](Cc3ccccc3Cl)NC(=O)c3ccccc3)cc2)C(=O)NCCOCCOCCN1 [Compound 522] showed an IC50 of 1000 to 10000 nM.
C[C@H]1NC(=O)[C@@H](Cc2ccc(NC(=O)[C@H](Cc3ccccc3Cl)NC(=O)C3(c4ccc(F)cc4)CC3)cc2)NC(=O)CC2(CCCC2)CC(=O)N[C@H](C(=O)O)CCCCNC1=O [Compound 513] showed an IC50 of 100 to 1000 nM.
C[C@H]1NC(=O)[C@@H](Cc2ccc(NC(=O)[C@H](Cc3ccccc3Cl)NC(=O)Cc3ccc(F)cc3)cc2)NC(=O)CC2(CCCC2)NC(=O)CCNC(=O)CCNC1=O [Compound 593] was tested, and the IC50 was 100 to 1000 nM.
Compound O=C1CNC(=O)[C@@H](Cc2ccc(NC(=O)[C@H](Cc3ccc(F)cc3Cl)NC(=O)Cc3ccccc3)cc2)NC(=O)CC2(CCCC2)CC(=O)NCCCCCN1 [Compound 386] has an IC50 of 1000 to 10000 nM.
Compound C[C@H]1NC(=O)[C@@H](Cc2ccc(NC(=O)[C@H](Cc3ccccc3Cl)NC(=O)Cc3ccc(CO)cc3)cc2)NC(=O)CC2(CCCC2)CC(=O)NCCCCCNC1=O [Compound 487] has an IC50 of less than 100 nM.
For O=C1CC2(CCCC2)CC(=O)N[C@H](Cc2ccc(NC(=O)[C@H](Cc3ccccc3Cl)NC(=O)Cc3ccc(F)cc3)cc2)C(=O)NCC#CCCCCN1 [Compound 497], the IC50 was 1000 to 10000 nM.
